Measurements reported in ChEMBL document CHEMBL4219073, “Development of selective inhibitors for the treatment of rheumatoid arthritis: (R)-3-(3-(Methyl(7H-pyrrolo[2,3-d]pyrimidin-4-yl)amino)pyrrolidin-1-yl)-3-oxopropanenitrile as a JAK1-selective inhibitor” (Bioorg Med Chem, 2018).

Assays:
[1] = target: Tyrosine-protein kinase JAK2 (Homo sapiens, UniProt O60674); format: ADME
Description: Inhibition of recombinant human JAK2 (808-end residues) in presence of ATP

[2] = target: Tyrosine-protein kinase JAK1 (Homo sapiens, UniProt P23458)
Description: Inhibition of recombinant human JAK1 (866-end residues) in presence of ATP

[3] = in vitro; settings: mouse, microsomes
Description: Metabolic stability in mouse liver microsomes assessed as parent compound remaining after 30 mins

[4] = in vitro; settings: rat, microsomes
Description: Metabolic stability in rat liver microsomes assessed as parent compound remaining after 30 mins

[5] = in vitro; settings: human, microsomes
Description: Metabolic stability in human liver microsomes assessed as parent compound remaining after 30 mins

[6] = in vitro; settings: dog, microsomes
Description: Metabolic stability in dog liver microsomes assessed as parent compound remaining after 30 mins

Sequence of Tyrosine-protein kinase JAK2 (O60674 whole entry): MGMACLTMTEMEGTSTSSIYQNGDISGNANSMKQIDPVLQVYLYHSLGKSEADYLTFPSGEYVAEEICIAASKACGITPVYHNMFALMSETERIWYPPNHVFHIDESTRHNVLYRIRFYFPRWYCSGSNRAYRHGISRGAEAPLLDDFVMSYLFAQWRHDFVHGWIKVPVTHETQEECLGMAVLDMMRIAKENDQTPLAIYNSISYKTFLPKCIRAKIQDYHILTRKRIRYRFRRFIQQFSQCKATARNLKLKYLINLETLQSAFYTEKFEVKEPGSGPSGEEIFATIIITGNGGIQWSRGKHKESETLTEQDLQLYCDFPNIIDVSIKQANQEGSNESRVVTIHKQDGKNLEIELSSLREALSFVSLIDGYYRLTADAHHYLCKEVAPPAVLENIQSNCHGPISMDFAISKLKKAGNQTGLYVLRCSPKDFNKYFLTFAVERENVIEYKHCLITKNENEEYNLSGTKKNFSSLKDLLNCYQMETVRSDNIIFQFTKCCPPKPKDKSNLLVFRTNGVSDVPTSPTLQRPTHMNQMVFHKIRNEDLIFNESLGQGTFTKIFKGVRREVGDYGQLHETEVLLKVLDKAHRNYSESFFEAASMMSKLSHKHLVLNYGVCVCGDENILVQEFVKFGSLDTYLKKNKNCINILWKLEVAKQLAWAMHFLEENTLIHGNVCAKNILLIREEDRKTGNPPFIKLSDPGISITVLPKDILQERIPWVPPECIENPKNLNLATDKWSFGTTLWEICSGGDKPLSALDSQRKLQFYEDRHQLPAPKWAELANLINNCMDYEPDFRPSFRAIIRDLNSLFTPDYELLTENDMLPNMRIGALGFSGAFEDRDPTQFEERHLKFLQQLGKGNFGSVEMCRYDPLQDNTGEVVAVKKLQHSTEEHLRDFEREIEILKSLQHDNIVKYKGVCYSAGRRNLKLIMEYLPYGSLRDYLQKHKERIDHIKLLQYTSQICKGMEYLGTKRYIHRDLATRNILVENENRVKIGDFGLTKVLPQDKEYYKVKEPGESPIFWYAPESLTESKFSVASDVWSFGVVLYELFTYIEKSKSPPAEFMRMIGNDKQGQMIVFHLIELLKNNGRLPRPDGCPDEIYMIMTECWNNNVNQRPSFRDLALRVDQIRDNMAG
Sequence of Tyrosine-protein kinase JAK1 (P23458 whole entry): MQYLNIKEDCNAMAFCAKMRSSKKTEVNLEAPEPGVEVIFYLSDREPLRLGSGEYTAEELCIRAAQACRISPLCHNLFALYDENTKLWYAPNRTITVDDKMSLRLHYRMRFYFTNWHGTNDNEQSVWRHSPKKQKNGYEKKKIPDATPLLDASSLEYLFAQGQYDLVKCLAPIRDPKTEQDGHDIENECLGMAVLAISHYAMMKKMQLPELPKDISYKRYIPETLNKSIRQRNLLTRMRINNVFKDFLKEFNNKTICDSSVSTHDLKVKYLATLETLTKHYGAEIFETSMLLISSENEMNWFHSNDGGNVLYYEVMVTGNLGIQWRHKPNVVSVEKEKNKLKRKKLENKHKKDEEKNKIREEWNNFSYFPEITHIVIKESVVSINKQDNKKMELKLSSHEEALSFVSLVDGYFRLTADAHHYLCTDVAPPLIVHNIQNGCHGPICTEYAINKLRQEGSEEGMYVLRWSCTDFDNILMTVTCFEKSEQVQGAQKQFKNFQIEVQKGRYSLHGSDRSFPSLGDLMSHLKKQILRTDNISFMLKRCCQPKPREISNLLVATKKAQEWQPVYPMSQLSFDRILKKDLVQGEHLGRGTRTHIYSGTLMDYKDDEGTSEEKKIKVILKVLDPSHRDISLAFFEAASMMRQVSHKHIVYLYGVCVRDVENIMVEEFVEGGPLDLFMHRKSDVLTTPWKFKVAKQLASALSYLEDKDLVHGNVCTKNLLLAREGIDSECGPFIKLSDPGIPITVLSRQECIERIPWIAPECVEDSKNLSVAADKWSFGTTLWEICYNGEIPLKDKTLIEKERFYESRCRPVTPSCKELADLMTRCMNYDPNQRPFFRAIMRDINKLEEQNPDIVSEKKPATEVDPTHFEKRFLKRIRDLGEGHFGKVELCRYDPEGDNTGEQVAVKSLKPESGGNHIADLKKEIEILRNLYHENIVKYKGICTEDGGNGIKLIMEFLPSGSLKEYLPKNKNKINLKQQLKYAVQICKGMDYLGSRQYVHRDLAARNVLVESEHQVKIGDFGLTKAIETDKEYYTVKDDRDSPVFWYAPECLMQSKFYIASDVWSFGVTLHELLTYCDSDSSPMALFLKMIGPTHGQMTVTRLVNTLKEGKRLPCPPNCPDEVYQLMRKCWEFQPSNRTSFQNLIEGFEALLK

| SMILES | IC50 [1] | IC50 [2] | remaining at 0.5 h [3] | remaining at 0.5 h [4] | remaining at 0.5 h [5] | remaining at 0.5 h [6] |
| --- | --- | --- | --- | --- | --- | --- |
| Cc1ccc(S(=O)(=O)N2CC[C@@H](N(C)c3ncnc4[nH]ccc34)C2)cc1 | 1800 nM | 19 nM | – | – | – | – |
| CCN(c1ncnc2[nH]ccc12)[C@@H]1CCN(S(=O)(=O)c2cccc(C#N)c2)C1 | 110 nM | 19 nM | – | – | – | – |
| Cc1cccc(S(=O)(=O)N2CC[C@@H](N(C)c3ncnc4[nH]ccc34)C2)c1 | 730 nM | 29 nM | – | – | – | – |
| CN(c1ncnc2[nH]ccc12)[C@@H]1CCN(S(C)(=O)=O)C1 | 4700 nM | 70 nM | – | – | – | – |
| CN(c1ncnc2[nH]ccc12)[C@@H]1CCN(S(=O)(=O)c2cn(C)cn2)C1 | 19000 nM | 650 nM | – | – | – | – |
| CN(c1ncnc2[nH]ccc12)[C@@H]1CCN(S(=O)(=O)N2CCOCC2)C1 | 4400 nM | 270 nM | – | – | – | – |
| CN(c1ncnc2[nH]ccc12)[C@@H]1CCN(S(=O)(=O)c2cccc(C#N)c2)C1 | 57 nM | 4.1 nM | 10% | 3.7% | 26.3% | 31.6% |
| CN(c1ncnc2[nH]ccc12)[C@@H]1CCN(S(=O)(=O)c2ccccc2)C1 | 430 nM | 28 nM | – | – | – | – |
| CCCS(=O)(=O)N1CC[C@@H](N(C)c2ncnc3[nH]ccc23)C1 | 460 nM | 34 nM | – | – | – | – |
